The source made the active and inactive calls.
Key:
[1] = biological target: Glyceraldehyde-3-phosphate dehydrogenase (Homo sapiens, UniProt P04406)
[2] = biological target: T1, Bcl-2-related protein A1 (Mus musculus, UniProt Q07440); assay: Bfl-1 binding inhibitors, SAR follow-up, biochemical, fluorescence polarization (AID 1070)
T1 sequence (Q07440 whole entry): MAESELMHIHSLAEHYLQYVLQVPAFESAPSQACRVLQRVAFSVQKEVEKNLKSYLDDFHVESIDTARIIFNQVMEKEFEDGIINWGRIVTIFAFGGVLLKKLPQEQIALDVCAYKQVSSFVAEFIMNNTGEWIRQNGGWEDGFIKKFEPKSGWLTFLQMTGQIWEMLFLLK

[3] = biological target: T1, Bcl-2-related protein A1; assay: small-molecule antagonists of Bfl-1/BH3 interaction – biochemical, TR-FRET, mouse Bfl-1, confirmation (AID 621);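 further: TR-FRET binding of GST-Bfl-1 to FITC-labelled Bid peptide via terbium antibody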
[4] = biological target: Procathepsin L (Homo sapiens, UniProt P07711); assay: CTSL1 protease inhibition – biochemical, QFRET, 1536-well, counter-screen for M1/M17 aminopeptidase inhibitor project, dose response (AID 2214)
[5] = biological target: Aspartyl aminopeptidase (Plasmodium falciparum 3D7, UniProt Q8I2J3); assay: Counterscreen for inhibitors of M1 and M17 aminopeptidases: QFRET-based biochemical high throughput dose response assay for inhibitors of the Plasmodium falciparum M18 Aspartyl Aminopeptidase (PFM18AAP). [Related PubChem assays: 1619 (Screening assay (M17LAP inhibitors).), 1445 (Screening assay (M1AAP inhibitors).)]
[6] = biological target: T2, Leucine aminopeptidase (Plasmodium falciparum 3D7, UniProt Q8IL11); assay: P. falciparum M17LAP inhibitors, primary screen, biochemical, fluorogenic H-Leu-NHMec substrate, 1536-well (AID 1619); assay type: functional
T2 sequence (Q8IL11 whole entry): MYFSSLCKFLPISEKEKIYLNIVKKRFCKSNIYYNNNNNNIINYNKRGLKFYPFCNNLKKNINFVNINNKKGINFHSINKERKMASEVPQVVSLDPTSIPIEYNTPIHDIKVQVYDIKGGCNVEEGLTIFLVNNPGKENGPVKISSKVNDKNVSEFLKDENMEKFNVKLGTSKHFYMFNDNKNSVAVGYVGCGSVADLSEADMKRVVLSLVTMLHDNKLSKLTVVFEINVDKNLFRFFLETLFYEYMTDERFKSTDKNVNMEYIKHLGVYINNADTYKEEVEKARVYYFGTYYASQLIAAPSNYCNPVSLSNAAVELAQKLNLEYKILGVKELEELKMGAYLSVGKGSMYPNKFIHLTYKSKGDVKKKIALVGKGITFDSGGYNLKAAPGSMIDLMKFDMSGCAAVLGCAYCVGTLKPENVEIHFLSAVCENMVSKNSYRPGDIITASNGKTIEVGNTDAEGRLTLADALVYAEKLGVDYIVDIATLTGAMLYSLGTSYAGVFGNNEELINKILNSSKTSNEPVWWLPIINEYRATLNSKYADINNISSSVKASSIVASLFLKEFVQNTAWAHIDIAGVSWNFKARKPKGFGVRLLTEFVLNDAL

[7] = viability of PTEN-deleted HCT116 cells – cell-based, HCT116 PTEN knockout, dose response (AID 1047); assay type: functional;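 further: HCT116 colon tumor cells with PTEN knocked out; cells exposed to compound for 60 hours before readout; potency for loss of cell viability measured by luminescence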
[8] = biological target: Sphingosine 1-phosphate receptor 2 (Homo sapiens, UniProt O95136); assay: Dose Response Cell Based Assay for Agonists of the S1P2 Receptor. [Related pubchem assays: 729, 736, 843 ]; assay type: functional
[9] = viability of HCT116 lacking mutant beta-catenin – cell-based, human colon tumor, dose response (AID 1045); assay type: functional;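 further: HCT116 colon tumor cells with beta catenin knocked out; cells exposed to compound for 60 hours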
[10] = biological target: Serine/threonine-protein phosphatase PP1-alpha catalytic subunit (Homo sapiens, UniProt P62136); assay: inhibition of protein phosphatase 1 activity – biochemical, fluorescence, dose response (AID 2394)
[11] = biological target: Serine/threonine-protein phosphatase (Homo sapiens, UniProt Q9BPW0); assay: inhibition of protein phosphatase 5 activity – biochemical, fluorescence, dose response (AID 2395)
[12] = biological target: T3, Protein RecA (Mycobacterium tuberculosis, UniProt P9WHJ3); assay: Fluorescence Cell-Free Homogeneous Dose Retest to Identify Inhibitors of RecA-Intein Splicing Activity. [Related pubchem assays (depositor defined):AID2097, AID2223, AID489010, AID492950]; assay type: functional
T3 sequence (P9WHJ3 whole entry): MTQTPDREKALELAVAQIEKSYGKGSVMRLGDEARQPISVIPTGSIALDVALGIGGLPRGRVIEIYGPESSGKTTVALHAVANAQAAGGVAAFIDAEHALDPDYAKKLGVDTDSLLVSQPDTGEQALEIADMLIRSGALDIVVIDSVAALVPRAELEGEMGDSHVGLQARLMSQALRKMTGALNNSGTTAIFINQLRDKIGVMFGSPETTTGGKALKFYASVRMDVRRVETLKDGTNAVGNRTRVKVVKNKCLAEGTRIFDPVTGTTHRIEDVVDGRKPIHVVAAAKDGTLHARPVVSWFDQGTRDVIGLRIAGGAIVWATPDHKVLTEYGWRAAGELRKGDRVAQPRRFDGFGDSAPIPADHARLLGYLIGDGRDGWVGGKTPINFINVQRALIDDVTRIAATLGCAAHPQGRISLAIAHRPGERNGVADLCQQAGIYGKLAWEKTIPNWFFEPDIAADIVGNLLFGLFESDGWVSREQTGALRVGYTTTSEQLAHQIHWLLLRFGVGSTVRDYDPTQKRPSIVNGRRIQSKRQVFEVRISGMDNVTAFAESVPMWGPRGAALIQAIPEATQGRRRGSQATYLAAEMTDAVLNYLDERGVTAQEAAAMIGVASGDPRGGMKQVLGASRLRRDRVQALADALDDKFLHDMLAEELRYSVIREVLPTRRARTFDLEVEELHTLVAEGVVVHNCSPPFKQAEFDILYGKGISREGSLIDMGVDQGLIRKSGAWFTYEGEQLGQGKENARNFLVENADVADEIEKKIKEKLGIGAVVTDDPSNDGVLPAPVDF

[13] = antibacterial activity against E. coli NEB5alpha – luminescence, counter-screen for MEX-5/POS-1 RNA-binding inhibitor project, dose response (AID 1959); assay type: functional
[14] = Luminescence Cell-Based Dose Confirmation HTS to Identify Inhibitors of Platelet Dense Granule Release. [Related pubchem assays: 1663 (Primary HTS), 1678 (Summary of Project)]; assay type: functional
[15] = biological target: Large T antigen (Simian virus 40, UniProt P03070); assay type: functional, Betapolyomavirus macacae;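 further: Confirmatory-stage PubChem screen for compounds that inhibit SV40 T antigen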
[16] = biological target: T4, Histone-lysine N-methyltransferase NSD2 (Homo sapiens, UniProt O96028); assay type: biochemical
T4 sequence (O96028 whole entry): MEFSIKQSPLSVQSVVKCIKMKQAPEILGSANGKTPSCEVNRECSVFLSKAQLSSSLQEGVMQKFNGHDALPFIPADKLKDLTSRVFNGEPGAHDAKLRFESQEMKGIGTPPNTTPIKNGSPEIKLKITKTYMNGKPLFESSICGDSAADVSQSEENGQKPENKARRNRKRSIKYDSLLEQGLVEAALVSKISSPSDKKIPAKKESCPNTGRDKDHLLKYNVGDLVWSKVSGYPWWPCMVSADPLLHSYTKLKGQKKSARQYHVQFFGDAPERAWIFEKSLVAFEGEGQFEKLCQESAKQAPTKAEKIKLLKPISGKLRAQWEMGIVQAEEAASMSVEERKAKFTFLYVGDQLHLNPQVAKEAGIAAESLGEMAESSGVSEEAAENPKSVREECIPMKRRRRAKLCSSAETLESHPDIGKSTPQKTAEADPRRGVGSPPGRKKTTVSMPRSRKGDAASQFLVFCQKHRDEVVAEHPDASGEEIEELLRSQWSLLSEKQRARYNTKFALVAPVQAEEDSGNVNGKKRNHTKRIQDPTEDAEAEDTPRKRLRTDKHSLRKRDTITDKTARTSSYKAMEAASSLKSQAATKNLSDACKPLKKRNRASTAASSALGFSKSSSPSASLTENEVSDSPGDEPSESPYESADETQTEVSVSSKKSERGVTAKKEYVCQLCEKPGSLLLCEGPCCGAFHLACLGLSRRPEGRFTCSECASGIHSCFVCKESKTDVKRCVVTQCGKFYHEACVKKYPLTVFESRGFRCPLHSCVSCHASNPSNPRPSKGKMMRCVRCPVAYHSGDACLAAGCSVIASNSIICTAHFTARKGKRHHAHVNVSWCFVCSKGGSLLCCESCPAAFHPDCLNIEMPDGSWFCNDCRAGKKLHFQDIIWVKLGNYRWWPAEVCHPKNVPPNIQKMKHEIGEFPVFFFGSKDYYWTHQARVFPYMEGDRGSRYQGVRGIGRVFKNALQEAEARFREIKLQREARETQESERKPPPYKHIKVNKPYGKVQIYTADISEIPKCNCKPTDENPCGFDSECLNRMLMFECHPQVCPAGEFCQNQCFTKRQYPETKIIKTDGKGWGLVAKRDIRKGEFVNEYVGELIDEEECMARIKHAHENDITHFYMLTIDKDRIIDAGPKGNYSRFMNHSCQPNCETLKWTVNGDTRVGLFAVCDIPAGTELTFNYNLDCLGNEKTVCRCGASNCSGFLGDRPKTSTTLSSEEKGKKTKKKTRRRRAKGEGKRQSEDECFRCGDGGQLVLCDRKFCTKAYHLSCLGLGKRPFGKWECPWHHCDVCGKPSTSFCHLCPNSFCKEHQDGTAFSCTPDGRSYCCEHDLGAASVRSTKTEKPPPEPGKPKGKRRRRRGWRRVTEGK

[17] = biological target: T5, Zinc finger protein mex-5 (Caenorhabditis elegans, UniProt Q9XUB2); assay: potency of MEX-5 RNA-binding blockers – biochemical, C. elegans, fluorescence polarization, dose response (AID 1960)
T5 sequence (Q9XUB2 whole entry): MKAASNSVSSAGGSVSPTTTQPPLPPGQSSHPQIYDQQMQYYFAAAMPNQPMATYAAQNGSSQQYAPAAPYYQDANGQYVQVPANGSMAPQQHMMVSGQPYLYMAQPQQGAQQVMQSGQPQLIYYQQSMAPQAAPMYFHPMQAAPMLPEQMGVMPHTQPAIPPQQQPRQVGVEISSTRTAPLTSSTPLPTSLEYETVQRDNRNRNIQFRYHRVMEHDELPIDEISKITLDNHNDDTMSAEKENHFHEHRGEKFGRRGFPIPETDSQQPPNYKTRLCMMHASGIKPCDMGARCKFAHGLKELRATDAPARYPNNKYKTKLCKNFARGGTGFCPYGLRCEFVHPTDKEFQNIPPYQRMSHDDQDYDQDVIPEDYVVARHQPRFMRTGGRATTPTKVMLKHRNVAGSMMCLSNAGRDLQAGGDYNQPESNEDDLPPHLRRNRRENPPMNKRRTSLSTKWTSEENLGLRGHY

[18] = biological target: Luciferin 4-monooxygenase (Photinus pyralis, UniProt P08659); assay: inhibition of purified Photinus pyralis luciferase – biochemical, luminescence, dose response (AID 1891)
[19] = biological target: T6, RNA-binding protein pos-1 (Caenorhabditis elegans, UniProt G5EF15); assay: disruptors of C. elegans POS-1 RNA interaction – biochemical, fluorescence polarization, dose response (AID 1964);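 further: purified POS-1 fused to maltose binding protein made in E. coli; potency of compounds blocking POS-1 binding to fluorescent RNA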
T6 sequence (G5EF15 whole entry): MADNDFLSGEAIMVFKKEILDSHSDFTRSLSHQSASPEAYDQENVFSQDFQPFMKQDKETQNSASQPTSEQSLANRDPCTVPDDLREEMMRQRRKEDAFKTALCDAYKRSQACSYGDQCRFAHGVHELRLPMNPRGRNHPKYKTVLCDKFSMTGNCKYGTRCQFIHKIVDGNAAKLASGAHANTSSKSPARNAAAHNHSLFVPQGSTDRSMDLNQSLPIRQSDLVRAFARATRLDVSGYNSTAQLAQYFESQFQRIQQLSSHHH

Large T antigen, sequence (P03070 whole entry): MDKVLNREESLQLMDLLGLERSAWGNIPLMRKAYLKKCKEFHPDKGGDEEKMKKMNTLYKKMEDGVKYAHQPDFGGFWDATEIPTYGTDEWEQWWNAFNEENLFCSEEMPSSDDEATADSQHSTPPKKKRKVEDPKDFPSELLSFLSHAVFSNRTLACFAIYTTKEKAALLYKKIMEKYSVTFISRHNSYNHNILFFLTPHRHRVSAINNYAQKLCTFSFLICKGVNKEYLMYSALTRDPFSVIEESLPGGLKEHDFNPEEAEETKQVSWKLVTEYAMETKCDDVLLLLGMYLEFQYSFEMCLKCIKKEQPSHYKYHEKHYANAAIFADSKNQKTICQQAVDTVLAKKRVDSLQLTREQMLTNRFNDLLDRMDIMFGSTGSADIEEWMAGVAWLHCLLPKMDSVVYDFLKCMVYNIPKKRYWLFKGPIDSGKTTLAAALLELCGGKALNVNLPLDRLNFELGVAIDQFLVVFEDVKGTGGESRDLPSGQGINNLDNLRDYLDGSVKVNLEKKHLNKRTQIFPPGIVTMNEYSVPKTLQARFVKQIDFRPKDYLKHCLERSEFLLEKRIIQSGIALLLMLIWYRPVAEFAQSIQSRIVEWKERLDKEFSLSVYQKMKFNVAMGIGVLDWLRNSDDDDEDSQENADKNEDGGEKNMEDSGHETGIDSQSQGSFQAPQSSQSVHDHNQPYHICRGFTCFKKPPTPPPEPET
Glyceraldehyde-3-phosphate dehydrogenase, sequence (P04406 whole entry): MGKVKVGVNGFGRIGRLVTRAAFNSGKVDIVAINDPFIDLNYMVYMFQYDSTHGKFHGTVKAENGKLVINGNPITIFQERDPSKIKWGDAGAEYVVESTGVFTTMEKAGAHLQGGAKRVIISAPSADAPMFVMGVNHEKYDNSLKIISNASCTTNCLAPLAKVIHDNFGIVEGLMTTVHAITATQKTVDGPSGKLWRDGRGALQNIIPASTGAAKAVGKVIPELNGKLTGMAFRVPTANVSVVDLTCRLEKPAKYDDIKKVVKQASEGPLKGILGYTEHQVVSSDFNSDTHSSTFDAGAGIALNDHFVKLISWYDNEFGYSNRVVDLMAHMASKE
Luciferin 4-monooxygenase, sequence (P08659 whole entry, the tested form may be a part): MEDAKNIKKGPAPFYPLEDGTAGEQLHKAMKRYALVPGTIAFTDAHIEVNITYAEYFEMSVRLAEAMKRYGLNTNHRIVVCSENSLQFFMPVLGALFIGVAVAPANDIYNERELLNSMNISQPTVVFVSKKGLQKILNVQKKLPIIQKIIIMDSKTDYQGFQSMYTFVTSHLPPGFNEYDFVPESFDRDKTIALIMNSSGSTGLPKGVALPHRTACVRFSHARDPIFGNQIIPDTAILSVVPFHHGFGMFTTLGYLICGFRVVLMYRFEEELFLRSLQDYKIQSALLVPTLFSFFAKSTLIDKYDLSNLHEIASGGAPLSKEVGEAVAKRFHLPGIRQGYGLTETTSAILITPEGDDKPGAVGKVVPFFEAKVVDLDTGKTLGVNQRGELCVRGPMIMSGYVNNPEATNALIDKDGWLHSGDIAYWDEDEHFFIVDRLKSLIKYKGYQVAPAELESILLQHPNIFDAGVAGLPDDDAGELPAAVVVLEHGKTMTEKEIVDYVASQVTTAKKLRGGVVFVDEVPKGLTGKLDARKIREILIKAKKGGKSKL
Sphingosine 1-phosphate receptor 2, sequence (O95136 whole entry): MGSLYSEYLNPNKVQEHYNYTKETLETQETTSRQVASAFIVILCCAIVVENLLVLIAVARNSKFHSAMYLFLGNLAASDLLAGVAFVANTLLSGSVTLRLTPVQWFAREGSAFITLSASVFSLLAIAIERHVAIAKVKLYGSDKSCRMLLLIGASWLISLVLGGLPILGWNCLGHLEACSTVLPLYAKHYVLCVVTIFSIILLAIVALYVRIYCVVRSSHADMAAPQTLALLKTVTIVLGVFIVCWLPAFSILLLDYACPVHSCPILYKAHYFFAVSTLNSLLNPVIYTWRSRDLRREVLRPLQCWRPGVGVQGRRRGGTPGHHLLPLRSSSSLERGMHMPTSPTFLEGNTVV
Aspartyl aminopeptidase, sequence (Q8I2J3 whole entry): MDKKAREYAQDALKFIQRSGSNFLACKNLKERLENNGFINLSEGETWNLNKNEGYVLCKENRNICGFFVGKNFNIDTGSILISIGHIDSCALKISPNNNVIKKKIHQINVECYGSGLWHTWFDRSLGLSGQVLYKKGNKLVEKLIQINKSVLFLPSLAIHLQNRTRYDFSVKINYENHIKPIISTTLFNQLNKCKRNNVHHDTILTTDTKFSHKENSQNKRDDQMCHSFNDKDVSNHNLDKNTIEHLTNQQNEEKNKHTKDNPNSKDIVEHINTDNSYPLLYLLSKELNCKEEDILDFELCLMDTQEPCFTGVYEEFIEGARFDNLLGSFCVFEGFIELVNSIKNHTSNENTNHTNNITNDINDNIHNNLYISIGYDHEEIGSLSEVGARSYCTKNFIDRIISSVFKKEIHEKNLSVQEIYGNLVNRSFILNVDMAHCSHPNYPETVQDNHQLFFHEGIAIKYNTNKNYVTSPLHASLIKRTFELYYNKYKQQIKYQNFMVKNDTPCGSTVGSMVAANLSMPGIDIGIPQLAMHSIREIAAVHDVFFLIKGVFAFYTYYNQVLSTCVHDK
Procathepsin L, sequence (P07711 whole entry): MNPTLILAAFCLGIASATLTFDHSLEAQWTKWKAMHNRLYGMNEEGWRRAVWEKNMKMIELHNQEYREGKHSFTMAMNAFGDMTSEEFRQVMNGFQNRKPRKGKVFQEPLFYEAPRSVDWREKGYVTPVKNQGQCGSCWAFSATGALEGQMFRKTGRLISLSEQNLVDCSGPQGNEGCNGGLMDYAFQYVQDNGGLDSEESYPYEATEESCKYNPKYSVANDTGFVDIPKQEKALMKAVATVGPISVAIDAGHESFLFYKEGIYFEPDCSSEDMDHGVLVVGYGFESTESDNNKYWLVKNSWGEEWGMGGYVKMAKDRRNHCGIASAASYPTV
Serine/threonine-protein phosphatase PP1-alpha catalytic subunit, sequence (P62136 whole entry): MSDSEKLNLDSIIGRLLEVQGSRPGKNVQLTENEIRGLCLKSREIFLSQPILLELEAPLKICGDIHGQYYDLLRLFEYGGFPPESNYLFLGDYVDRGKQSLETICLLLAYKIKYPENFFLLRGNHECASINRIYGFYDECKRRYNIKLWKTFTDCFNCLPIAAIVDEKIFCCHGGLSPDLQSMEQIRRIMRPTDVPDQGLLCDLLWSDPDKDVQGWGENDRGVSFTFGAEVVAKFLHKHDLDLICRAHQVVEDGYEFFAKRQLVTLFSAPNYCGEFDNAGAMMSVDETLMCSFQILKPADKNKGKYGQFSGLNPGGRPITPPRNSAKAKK
Serine/threonine-protein phosphatase, sequence (Q9BPW0 whole entry): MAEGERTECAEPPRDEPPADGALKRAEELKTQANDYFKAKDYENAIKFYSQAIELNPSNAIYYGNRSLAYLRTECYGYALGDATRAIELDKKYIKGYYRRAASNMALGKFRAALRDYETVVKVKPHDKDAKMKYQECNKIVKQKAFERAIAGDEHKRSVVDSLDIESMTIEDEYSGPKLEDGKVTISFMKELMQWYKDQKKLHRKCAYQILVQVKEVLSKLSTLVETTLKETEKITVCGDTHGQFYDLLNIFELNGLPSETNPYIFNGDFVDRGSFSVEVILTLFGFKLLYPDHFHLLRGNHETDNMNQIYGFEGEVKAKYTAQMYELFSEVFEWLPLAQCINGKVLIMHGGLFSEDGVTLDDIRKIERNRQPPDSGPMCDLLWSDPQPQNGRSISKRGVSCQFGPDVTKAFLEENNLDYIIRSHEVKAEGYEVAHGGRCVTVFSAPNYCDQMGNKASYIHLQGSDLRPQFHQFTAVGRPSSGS

With `CC1C(=O)NCCN1C1=C(Cl)C(=O)N(c2ccc(Cl)c(Cl)c2)C1=O` (centres undefined) the IC50 [1] was > 50 µM (inconclusive), the IC50 [2] was 5.63 µM (active) and the IC50 [3] was 2.03 µM (active).
With `Cc1ccc(Nc2nnc(SCc3cc(=O)n4ccsc4n3)s2)c(C)c1` the IC50 [4] was > 59.6 µM (not active), the IC50 [5] was > 73.5 µM (not active) and the IC50 [6] was 6.49 µM (active).
With `CC(C)CNC(=O)c1c(N)n(Cc2ccc3c(c2)OCO3)c2nc3ccccc3nc12` the EC50 [7] was 11.9 µM (active), the EC50 [8] was 2.61 µM (active) and the EC50 [9] was 16.3 µM (active). The IC50 [10] was > 67 µM (not active), the IC50 [11] was 17.9 µM (not active) and the EC50 [12] was > 380 µM (inconclusive).
For `O=C(/C=C/c1ccc(O)c(O)c1)c1ccccc1O`, the EC50 [13] was 19.5 µM (active), the EC50 [14] was 2.23 µM (active) and the IC50 [15] was 17.4 µM (active). For the same compound, the AC50 [16] was > 20 µM (inactive), the EC50 [17] was 42.3 µM (active) and the EC50 [18] was 0.437 µM (active). For the same compound, the EC50 [19] was > 300 µM (not active).

Reference: ChEMBL document CHEMBL1201862, “PubChem BioAssay data set” (2004)
